Test system: HBV
Experiment: HBV-DNA antiviral assay using HepG2.117 cells
Assay type: cell-based, genotype D HBV
Conditions: intracellular HBV DNA by qPCR, 3 days incubation
Protocol: The following assay procedure describes the HBV antiviral assay, using HepG2.117 cells, which carry a stably integrated genotype D HBV genome under the control of a Tet-off promoter, and intracellular HBV DNA quantification as endpoint. Cell viability is assessed in parallel by measuring the intracellular ATP content using ATPlite (Perkin Elmer).
On day 0, HepG2.117 cells (which are maintained in routine cell culture with doxycycline present in the medium at a final concentration of 1 μg/mL) were seeded in 96-well plates (white with clear bottom) at a density of 2.0×10^4 cells/well (0.1 mL/well) in medium without doxycycline to induce pgRNA transcription and subsequent formation of HBV particles. The cells were incubated at 37° C. and 5% CO2.
On day 1, medium was removed from each well, the test articles were diluted in culture medium without doxcycyline and 100 μL was added to cell culture wells (9 concentrations, 4-fold dilution). For each plate, 6 untreated (merely DMSO) wells were included. The final concentration of DMSO in the culture medium was 2%. Each plate was prepared in duplicate (one for HBV DNA extraction, one for ATPlite measurement). The cells were incubated at 37° C. and 5% CO2 for 3 days.
On day 4, cell viability was assessed using ATPlite and cell lysates were prepared for HBV DNA extraction and subsequent quantification by qPCR.
Medium was removed from each well and 100 μL of 0.33% NP-40 in H2O was added to each well. Plates were sealed, incubated at 4° C. for 5 mins, vortexed extensively and centrifuged briefly. Next, 35 μL of lysate was added to 65 μL QuickExtract DNA Extraction Solution (Epicentre) in a PCR plate for each well. PCR plate was incubated at 65° C. for 6 mins, 98° C. for 2 mins and finally cooled to 4° C. HBV DNA was then quantified by qPCR with HBV-specific primers and probes as specified in Table 1 using the Bio-Rad SSOAdvanced Universal Probes Supermix on a CFX96 machine (Bio-Rad). The PCR cycle program consisted of 95° C. for 3 mins, followed by 40 cycles at 95° C. for 10 sec and 60° C. for 30 sec.
A DNA standard was prepared by dilution of an IDT gBlock corresponding to the amplicon with concentrations ranging from 10^2 to 10^8 copies/input (i.e. per 4 μL) and used to generate a standard curve by plotting Cq values vs. HBV DNA standard concentration. The quantity of HBV DNA in each sample was determined by interpolating from the standard curve.
Cell viability was calculated as follows: % Cell viability=(luminescence value of test sample)/(average luminescence value of 2% DMSO control)×100%. HBV DNA inhibition was calculated as follows: 100−(HBV DNA copy number of test sample)/(average HBV DNA copy number of 2% DMSO control)×100%. No normalization to entecavir was required due to the excellent dynamic window of this assay. The CC50, EC50 and EC90 values were determined by dose-response curves fitted by GraphPad Prism using “log (agonist) vs. response—Variable slope”.

Compound | EC50 [nM] | EC50 (Hepatitis B virus, 72 h) [nM]
CNC(=O)c1ccc(-n2c(=O)c3c(n4ncc(Cc5ccccc5)c24)CN(C(=O)c2ccc(Br)c(Cl)c2)C(C)C3)cc1 (single isomer, unassigned) [Compound 71, 4-[(11R*)-5-benzyl-12-(4-bromo-3-chlorobenzoyl)-11-methyl-8-oxo-2,3,7,12-tetraazatricyclo[7.4.0.0^[2,6]]trideca-1(9),3,5-trien-7-yl]-N-methylbenzamide] | ≤ 100 | –
CNC(=O)c1ccc(-n2c(=O)c3c(n4ncc(Cc5ccccc5)c24)CN(C(=O)c2ccc(Br)c(Cl)c2)C(C)C3)cc1 (single isomer, unassigned) [Compound 72, 4-[(11S*)-5-benzyl-12-(4-bromo-3-chlorobenzoyl)-11-methyl-8-oxo-2,3,7,12-tetraazatricyclo[7.4.0.0^[2,6]]trideca-1(9),3,5-trien-7-yl]-N-methylbenzamide] | ≤ 100 | –
CNC(=O)c1ccc(-n2c(=O)c3c(n4ncc([C@H](C)c5ccccc5)c24)CN(C(=O)c2ccc(Br)c(C#N)c2)CC3)cc1 (stereo in doubt) [Compound 57, 4-[12-(4-bromo-3-cyano-benzoyl)-8-oxo-5-[rac-(1R)-1-phenylethyl]-2,3,7,12-tetrazatricyclo [7.4.0.0 2,6]trideca-1(9),3,5-trien-7-yl]-N-methyl-benzamide] | – | ≤ 100
CNC(=O)c1ccc(-n2c(=O)c3c(n4ncc([C@@H](C)c5ccccc5)c24)CN(C(=O)c2ccc(Br)c(C#N)c2)CC3)cc1 (stereo in doubt) [Compound 58, 4-[12-(4-bromo-3-cyano-benzoyl)-8-oxo-5-[rac-(1S)-1-phenylethyl]-2,3,7,12-tetrazatricyclo [7.4.0.0 2,6]trideca-1(9),3,5-trien-7-yl]-N-methyl-benzamide] | – | ≤ 100
CNC(=O)c1ccc(-n2c(=O)c3c(n4ncc(N[C@@H](C)c5ccccc5)c24)CN(C(=O)c2ccc(Br)c(Cl)c2)CC3)cc1 (stereo in doubt) [Compound 74, 4-[12-(4-bromo-3-chloro-benzoyl)-8-oxo-5-[[rac-(1S)-1-phenylethyl]amino]-2,3,7,12-tetrazatricyclo [7.4.0.0 2,6]trideca-1(9),3,5-trien-7-yl]-N-methyl-benzamide] | – | ≤ 100
CNC(=O)c1ccc(-n2c(=O)c3c(n4ncc(N[C@H](C)c5ccccc5)c24)CN(C(=O)c2ccc(Br)c(Cl)c2)CC3)cc1 (stereo in doubt) [Compound 79, 4-[12-(4-bromo-3-chloro-benzoyl)-8-oxo-5-[[rac-(1R)-1-phenylethyl]amino]-2,3,7,12-tetrazatricyclo [7.4.0.0 2,6]trideca-1(9),3,5-trien-7-yl]-N-methyl-benzamide] | – | 100 to 500
CNC(=O)c1ccc(-n2c(=O)c3c(n4ncc(Cc5ccccc5)c24)CN(C(=O)c2ccc(Br)c(C#N)c2)[C@@H](C)C3)cc1 (stereo in doubt) [Compound 80, N-methyl-4-[rac-(11S)-5-benzyl-12-(4-bromo-3-cyano-benzoyl)-11-methyl-8-oxo-2,3,7,12-tetrazatricyclo [7.4.0.0 2,6]trideca-1(9),3,5-trien-7-yl] benzamide] | – | 100 to 500
CNC(=O)c1ccc(-n2c(=O)c3c(n4ncc(Cc5ccccc5)c24)CN(C(=O)c2ccc(Br)c(C#N)c2)[C@H](C)C3)cc1 (stereo in doubt) [Compound 81, N-methyl-4-[rac-(11R)-5-benzyl-12-(4-bromo-3-cyano-benzoyl)-11-methyl-8-oxo-2,3,7,12-tetrazatricyclo [7.4.0.0 2,6]trideca-1(9),3,5-trien-7-yl] benzamide] | – | ≤ 100
Cn1c(=O)c2c(n3nccc13)CN(C(=O)Nc1ccc(F)c(Cl)c1)CC2 [Compound 1, N-(3-chloro-4-fluorophenyl)-4-methyl-5-oxo-5,6,7,9-tetrahydropyrazolo[1,5-a]pyrido[4,3-e]pyrimidine-8(4H)-carboxamide] | – | 500 to 5000
O=C(Nc1ccc(F)c(Cl)c1)N1CCc2c(n3nccc3n(Cc3ccccc3)c2=O)C1 [Compound 2, 4-benzyl-N-(3-chloro-4-fluorophenyl)-5-oxo-5,6,7,9-tetrahydropyrazolo[1,5-a]pyrido[4,3-e]pyrimidine-8(4H)-carboxamide] | – | 500 to 5000
O=C(c1ccc(Br)cc1)N1CCc2c(n3nccc3n(-c3ccccc3)c2=O)C1 [Compound 3, 8-(4-bromobenzoyl)-4-phenyl-6,7,8,9-tetrahydropyrazolo[1,5-a]pyrido[4,3-e]pyrimidin-5(4H)-one] | – | > 5000
O=C(c1ccc(Br)c(F)c1)N1CCc2c(n3nccc3n(-c3ccccc3)c2=O)C1 [Compound 4, 8-(4-bromo-3-fluorobenzoyl)-4-phenyl-6,7,8,9-tetrahydropyrazolo[1,5-a]pyrido[4,3-e]pyrimidin-5(4H)-one] | – | > 5000
O=C(c1ccc(Br)c(Cl)c1)N1CCc2c(n3nccc3n(-c3ccccc3)c2=O)C1 [Compound 5, 12-(4-bromo-3-chlorobenzoyl)-7-phenyl-2,3,7,12-tetraazatricyclo[7.4.0.0^[2,6]]trideca-1(9),3,5-trien-8-one] | 500 to 5000 | –
O=C(c1ccc(Br)c(Cl)c1)N1CCc2c(n3nccc3n(Cc3ccccc3)c2=O)C1 [Compound 6, 7-benzyl-12-(4-bromo-3-chlorobenzoyl)-2,3,7,12-tetraazatricyclo[7.4.0.0^[2,6]]trideca-1(9),3,5-trien-8-one] | 500 to 5000 | –
Cc1cc2n(-c3ccccc3)c(=O)c3c(n2n1)CN(C(=O)c1ccc(Br)c(F)c1)CC3 [Compound 7, 12-(4-bromo-3-fluorobenzoyl)-4-methyl-7-phenyl-2,3,7,12-tetraazatricyclo[7.4.0.0^[2,6]]trideca-1(9),3,5-trien-8-one] | > 5000 | –
Cc1cnn2c3c(c(=O)n(-c4ccccc4)c12)CCN(C(=O)c1ccc(Br)c(F)c1)C3 [Compound 8, 12-(4-bromo-3-fluorobenzoyl)-5-methyl-7-phenyl-2,3,7,12-tetraazatricyclo[7.4.0.0^[2,6]]trideca-1(9),3,5-trien-8-one] | – | 500 to 5000
O=C(c1ccc(Br)c(F)c1)N1CCc2c(n3ncc(Cc4ccccc4)c3n(-c3ccccc3)c2=O)C1 [Compound 9, 5-benzyl-12-(4-bromo-3-fluorobenzoyl)-7-phenyl-2,3,7,12-tetraazatricyclo[7.4.0.0^[2,6]]trideca-1(9),3,5-trien-8-one] | – | 100 to 500
Cc1cnn2c3c(c(=O)n(-c4ccccc4)c12)CCN(C(=O)c1ccc(Br)c(Cl)c1)C3 [Compound 10, 12-(4-bromo-3-chlorobenzoyl)-5-methyl-7-phenyl-2,3,7,12-tetraazatricyclo[7.4.0.0^[2,6]]trideca-1(9),3,5-trien-8-one] | – | 100 to 500
O=C(c1ccc(Br)c(Cl)c1)N1CCc2c(n3nc(Cc4ccccc4)cc3n(-c3ccccc3)c2=O)C1 [Compound 11, 4-benzyl-12-(4-bromo-3-chlorobenzoyl)-7-phenyl-2,3,7,12-tetraazatricyclo[7.4.0.0^[2,6]]trideca-1(9),3,5-trien-8-one] | > 5000 | –
O=C(c1ccc(Br)c(Cl)c1)N1CCc2c(n3ncc(Cc4ccccc4)c3n(-c3ccccc3)c2=O)C1 [Compound 12, 5-benzyl-12-(4-bromo-3-chlorobenzoyl)-7-phenyl-2,3,7,12-tetraazatricyclo[7.4.0.0^[2,6]]trideca-1(9),3,5-trien-8-one] | – | 100 to 500
CC(C)c1cnn2c3c(c(=O)n(-c4ccccc4)c12)CCN(C(=O)c1ccc(Br)c(Cl)c1)C3 [Compound 13, 12-(4-bromo-3-chlorobenzoyl)-5-isopropyl-7-phenyl-2,3,7,12-tetraazatricyclo[7.4.0.0^[2,6]]trideca-1(9),3,5-trien-8-one] | – | 500 to 5000
COc1ccc(Cn2c(=O)c3c(n4ncc(Cc5ccccc5)c24)CN(C(=O)c2ccc(Cl)c(Cl)c2)CC3)cc1 [Compound 14, 5-benzyl-12-(3,4-dichlorobenzoyl)-7-[(4-methoxyphenyl)methyl]-2,3,7,12-tetrazatricyclo [7.4.0.0^2,6] trideca-1(9),3,5-trien-8-one] | – | 500 to 5000
CC(C)CNc1cnn2c3c(c(=O)n(-c4ccccc4)c12)CCN(C(=O)c1ccc(Cl)c(Cl)c1)C3 [Compound 15, 12-(3,4-dichlorobenzoyl)-5-(isobutylamino)-7-phenyl-2,3,7,12-tetrazatricyclo [7.4.0.0^2,6] trideca-1(9),3,5-trien-8-one] | – | > 5000
